Experimental findings from patent publication US20250145589A1, “PYRIDINE DERIVATIVE AND USE THEREOF” (SICHUAN HUIYU PHARMACEUTICAL CO., LTD., priority 2021, published 2025) are described below.

Like-named read-outs stand apart in the source and are kept apart here.

Test [1] has as its system NCI-H358 cells (KRAS G12C mutant). The test can be described thus: NCI-H358 cell proliferation inhibition (CellTiter-Glo). The test is classed as cell-based. The settings on record: Homo sapiens, NCI-H358, 72 h; H358 cells (G12C mutation), 3 days, Table 6; read-out: NCI-H358 (IC50). (ATP-based viability assays read luminescence as a measure of living cells.)
Test [2] addresses PI3Kδ (Homo sapiens (Human), UniProt O00329). The test can be described thus: Inhibition of PI3Kδ efficacy assay (ADP-Glo kinase assay). In kind it is biochemical. The settings on record: read-out: PI3Kδ inhibitory activity (IC50). As to the method: Test Example 2: Inhibition of PI3Kδ Efficacy assay The ADP-Glo™ kinase assay was used to assess the inhibition of PI3Kδ with our compounds. The utilized proteins and assay reagents were obtained from the ADP-Glo™ Kinase Assay Kit (Promega). Initially, a 2 mM stock solution of the test compound (dissolved in DMSO) was serially diluted in five-fold concentrations using DMSO to obtain eight working solutions 1 (200×) Subsequently, each of the eight working solutions 1 was further diluted in a 20-fold gradient by adding 5 μL into 95 μL of ddH2O, resulting in eight working solutions 2 (10×). […] Subsequently, 2 μL of 2.5×PI and ATP solution mixture were added to each well, mixed, and incubated at RT for 60 minutes. Then, 5 μL of ADP-Glo (containing 10 mM MgCl2) reagent was added to each well, mixed, and incubated at RT for 40 minutes. Finally, 10 μL of the Kinase Detection Reagent was added to each well, mixed, and incubated at RT for 40 minutes. Luminescence values were recorded using a multi-mode microplate reader with luminescence channel settings, and the inhibitory rate was calculated using the following formula: [formula] Data were analyzed using GraphPad Prism with log(inhibitor) vs. response—Variable Slope(four parameters) fitting calculations for IC50 values.
Background: ADP-Glo turns the ADP formed in a reaction into a luminescent signal.

Test [3] concerns the target PI3Kα (Homo sapiens (Human), UniProt P42336). The test can be described thus: Inhibition of PI3Kα efficacy assay (ADP-Glo kinase assay). In kind it is biochemical. As to conditions: read-out: PI3Kα inhibitory activity (IC50). In a few lines:
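Eight five-fold dilutions of compound (2 mM DMSO stock) tested; kinase reaction with PI and ATP ran 60 min at RT, followed by ADP-Glo and detection reagent steps of 40 min each. Four-parameter logistic fitting gave IC50 values.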

Sequence of PI3Kδ (O00329 whole entry): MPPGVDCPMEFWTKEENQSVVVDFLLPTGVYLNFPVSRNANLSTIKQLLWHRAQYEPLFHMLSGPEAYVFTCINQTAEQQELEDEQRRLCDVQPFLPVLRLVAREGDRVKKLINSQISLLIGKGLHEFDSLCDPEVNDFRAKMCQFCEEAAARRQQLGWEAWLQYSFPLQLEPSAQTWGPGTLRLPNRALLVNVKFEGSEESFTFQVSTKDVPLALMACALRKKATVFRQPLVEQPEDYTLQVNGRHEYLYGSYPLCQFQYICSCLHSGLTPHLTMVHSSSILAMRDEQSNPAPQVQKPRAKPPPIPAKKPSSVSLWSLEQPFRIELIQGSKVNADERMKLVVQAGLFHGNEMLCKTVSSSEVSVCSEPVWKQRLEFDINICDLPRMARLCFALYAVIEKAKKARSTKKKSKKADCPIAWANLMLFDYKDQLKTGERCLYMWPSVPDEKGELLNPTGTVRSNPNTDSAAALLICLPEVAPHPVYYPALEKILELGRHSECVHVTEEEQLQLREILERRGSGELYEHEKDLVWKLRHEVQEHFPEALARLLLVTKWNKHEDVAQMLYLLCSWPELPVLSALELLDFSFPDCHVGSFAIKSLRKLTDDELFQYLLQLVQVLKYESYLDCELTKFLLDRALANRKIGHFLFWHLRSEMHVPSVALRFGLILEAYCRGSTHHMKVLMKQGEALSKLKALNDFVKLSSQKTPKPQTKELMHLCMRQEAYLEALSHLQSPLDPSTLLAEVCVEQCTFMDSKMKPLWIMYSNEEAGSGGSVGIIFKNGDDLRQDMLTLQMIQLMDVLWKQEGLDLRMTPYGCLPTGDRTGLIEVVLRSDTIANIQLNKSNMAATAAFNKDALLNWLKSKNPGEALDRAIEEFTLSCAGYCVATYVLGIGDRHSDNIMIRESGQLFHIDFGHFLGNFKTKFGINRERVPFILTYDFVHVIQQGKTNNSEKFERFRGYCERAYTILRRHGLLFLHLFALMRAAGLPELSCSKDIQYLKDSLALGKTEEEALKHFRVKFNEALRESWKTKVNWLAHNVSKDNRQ
Sequence of PI3Kδ (P27986 whole entry partner): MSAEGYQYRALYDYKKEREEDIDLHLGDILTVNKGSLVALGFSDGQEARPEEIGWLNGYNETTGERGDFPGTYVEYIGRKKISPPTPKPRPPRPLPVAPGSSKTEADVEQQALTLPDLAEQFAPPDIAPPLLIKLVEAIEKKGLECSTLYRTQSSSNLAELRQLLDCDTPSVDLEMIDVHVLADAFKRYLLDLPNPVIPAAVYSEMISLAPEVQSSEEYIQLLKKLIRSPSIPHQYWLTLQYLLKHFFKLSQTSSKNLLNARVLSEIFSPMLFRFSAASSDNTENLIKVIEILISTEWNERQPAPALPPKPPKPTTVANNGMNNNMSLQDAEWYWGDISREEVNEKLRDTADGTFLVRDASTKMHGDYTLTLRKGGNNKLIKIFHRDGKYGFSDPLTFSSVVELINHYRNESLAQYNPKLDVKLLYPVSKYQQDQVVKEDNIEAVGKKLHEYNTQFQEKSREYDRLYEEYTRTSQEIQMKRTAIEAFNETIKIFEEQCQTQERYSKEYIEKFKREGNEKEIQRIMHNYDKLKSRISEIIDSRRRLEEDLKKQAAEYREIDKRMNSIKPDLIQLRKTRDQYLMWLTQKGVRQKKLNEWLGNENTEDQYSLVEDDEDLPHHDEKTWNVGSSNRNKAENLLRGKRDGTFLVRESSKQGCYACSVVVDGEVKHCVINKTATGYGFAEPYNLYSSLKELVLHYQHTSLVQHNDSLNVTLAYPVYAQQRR
Sequence of PI3Kα (P42336 whole entry): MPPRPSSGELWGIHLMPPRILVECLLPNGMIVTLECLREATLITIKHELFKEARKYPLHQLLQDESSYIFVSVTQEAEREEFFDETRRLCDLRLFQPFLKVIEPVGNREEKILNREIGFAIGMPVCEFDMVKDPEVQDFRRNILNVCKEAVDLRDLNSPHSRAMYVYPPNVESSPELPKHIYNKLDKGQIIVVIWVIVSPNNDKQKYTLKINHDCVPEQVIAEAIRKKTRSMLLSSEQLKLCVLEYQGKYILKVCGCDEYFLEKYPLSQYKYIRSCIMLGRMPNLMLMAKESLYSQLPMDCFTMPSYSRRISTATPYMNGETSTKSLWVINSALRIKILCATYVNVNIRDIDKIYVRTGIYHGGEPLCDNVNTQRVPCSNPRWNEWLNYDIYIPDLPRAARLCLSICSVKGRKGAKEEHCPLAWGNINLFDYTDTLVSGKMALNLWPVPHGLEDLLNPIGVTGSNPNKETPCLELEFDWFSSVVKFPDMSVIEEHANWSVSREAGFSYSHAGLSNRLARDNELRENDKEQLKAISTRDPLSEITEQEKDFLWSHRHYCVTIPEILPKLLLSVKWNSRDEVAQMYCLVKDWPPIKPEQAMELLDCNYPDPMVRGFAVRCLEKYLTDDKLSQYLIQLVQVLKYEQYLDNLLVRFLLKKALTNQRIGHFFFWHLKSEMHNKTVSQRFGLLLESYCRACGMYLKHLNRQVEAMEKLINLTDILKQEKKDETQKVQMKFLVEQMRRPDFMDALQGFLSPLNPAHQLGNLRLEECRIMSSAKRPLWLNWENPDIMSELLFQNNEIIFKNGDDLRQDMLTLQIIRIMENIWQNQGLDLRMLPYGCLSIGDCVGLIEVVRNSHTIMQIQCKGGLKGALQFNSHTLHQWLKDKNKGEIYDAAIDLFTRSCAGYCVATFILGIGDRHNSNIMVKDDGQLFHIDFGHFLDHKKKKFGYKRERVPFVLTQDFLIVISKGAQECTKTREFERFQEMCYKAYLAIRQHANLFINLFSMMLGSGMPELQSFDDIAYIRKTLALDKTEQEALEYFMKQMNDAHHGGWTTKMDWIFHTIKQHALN
Sequence of PI3Kα (P27986 whole entry partner): as the sequence (P27986 whole entry partner) above

As to `C=C(OC)C(=O)N1CCN(c2ncnc3ccc(-c4cnc(OC)c(NS(=O)(=O)c5ccc(F)cc5F)c4)cc23)CC1` [Example 66, 2,4-difluoro-N-(2-methoxy-5-(4-(4-(2-methoxy-acryloyl)piperazin-1-yl)quinazolin-6-yl)pyridin-3-yl) benzene-sulfonamide], the results for the IC50 in test [1], in test [2] (Table 2) and in test [3] (Table 2) were 13.5 nM, 14.8 nM and 13.8 nM, respectively.

Turning to `C=C(F)C(=O)N1CCN(c2ncnc3ccc(-c4cnc(OC)c(NS(=O)(=O)c5ccc(F)cc5F)c4)cc23)C[C@@H]1CC#N` [Example 113, (S)-N-(5-(4-(3-(cyanomethyl)-4-(2-fluoroacryloyl)piperazin-1-yl)quinazolin-6-yl)-2-methoxypyridin-3-yl)-2,4-difluorobenzenesulfonamide], the IC50 was determined as 58 nM in test [1], 11.5 nM in test [2] (Table 2) and 2.9 nM in test [3] (Table 2).

Take `C=C(F)C(=O)N1CC2(CCN(c3ncnc4ccc(-c5cnc(OC)c(NS(=O)(=O)c6c(F)cccc6F)c5)cc34)C2)C1` [Example 48, 2,6-difluoro-N-(5-(4-(2-(2-fluoroacryloyl)-2,6-diazaspiro[3.4]octan-6-yl)quinazolin-6-yl)-2-methoxypyridin-3-yl) benzenesulfonamide]: the figures for the IC50 in test [1], in test [2] (Table 2) and in test [3] (Table 2) were 52.6 nM, 13.2 nM and 0.63 nM, respectively.

For `C=C(F)C(=O)N1C[C@H](C)N(c2ncnc3ccc(-c4cnc(OC)c(NS(=O)(=O)c5ccc(F)cc5F)c4)cc23)C[C@H]1C` [Example 68, 2,4-difluoro-N-(5-(4-((2S,5R)-4-(2-fluoroacryloyl)-2,5-dimethyl-piperazin-1-yl)quinazolin-6-yl)-2-methoxy-pyridin-3-yl) benzene-sulfonamide], the IC50 in test [1] was found to be 861 nM; in test [2] (Table 2), 27.7 nM; in test [3] (Table 2), 1.4 nM.

With `CCc1ncc(-c2ccc3ncnc(N4CCN(C(=O)/C=C/C(C)=O)CC4)c3c2)cc1NS(=O)(=O)c1ccc(F)cc1F` [Example 83, (E)-N-(2-ethyl-5-(4-(4-(4-oxopent-2-enoyl)piperazin-1-yl)quinazolin-6-yl)pyridin-3-yl)-2,4-difluorobenzenesulfonamide], the IC50 in test [1] was found to be 459 nM; in test [2] (Table 2) it was 17.6 nM; in test [3] (Table 2) it was 6.2 nM.

`COc1ncc(-c2ccc3ncnc(N4CCN(C(=O)/C=C/C(C)=O)[C@@H](CC#N)C4)c3c2)cc1NS(=O)(=O)c1ccc(F)cc1F` [Example 112, (S,E)-N-(5-(4-(3-(cyanomethyl)-4-(4-oxopent-2-enoyl)piperazin-1-yl)quinazolin-6-yl)-2-methoxypyridin-3-yl)-2,4-difluorobenzenesulfonamide]: the IC50 in test [1] is 72.2 nM; in test [2] (Table 2) it was 23.9 nM; in test [3] (Table 2) it was 5 nM.

Turning to `COc1ncc(-c2ccc3ncnc(N4CCN(C(=O)C5=CC(=O)CCC5)CC4)c3c2)cc1NS(=O)(=O)c1ccc(Cl)s1` [Example 73, 5-chloro-N-(2-methoxy-5-(4-(4-(3-oxocyclohexane-1-en-1-carbonyl)piperazin-1-yl)quinazoline-6-yl)pyridin-3-yl)thiophene-2-sulfonamide], the concentration for half-maximal inhibition (IC50) came to 34.3 nM in test [1], 16.5 nM in test [2] (Table 2) and 2.5 nM in test [3] (Table 2).

In the case of `C=CC(=O)N1CCN(c2ncnc3ccc(-c4cnc(OC)c(NS(=O)(=O)C5CCCCC5)c4)cc23)CC1` [Example 25, N-(5-(4-(4-acryloylpiperazin-1-yl)quinazolin-6-yl)-2-methoxypyridin-3-yl)cyclohexanesulfonamide], the IC50 was determined as 288 nM in test [1], 127 nM in test [2] (Table 1) and 26.9 nM in test [3] (Table 1).

For `C=CC(=O)N1CCN(c2ncnc3ccc(-c4cnc(OC)c(NS(=O)(=O)c5ccccc5)c4)cc23)CC1` [Example 24, N-(5 (4-(4-acryloylpiperazin-1-yl)quinazolin-6-yl)-2-methoxypyridin-3-yl)benzenesulfonamide], the values for the IC50 in test [1], in test [2] (Table 1) and in test [3] (Table 1) were 123 nM, 6.3 nM and 2.9 nM, respectively.

With `C=C(COC)C(=O)N1CCN(c2ncnc3ccc(-c4cnc(OC)c(NS(=O)(=O)c5ccc(F)cc5F)c4)cc23)CC1` [Example 65, 2,4-difluoro-N-(2-methoxy-5-(4-(4-(2-(methoxy-methyl)acryloyl)piperazin-1-yl)quinazolin-6-yl)pyridin-3-yl) benzene-sulfonamide], the IC50 in test [1] was determined as 25.1 nM; in test [2] (Table 2), 53 nM; in test [3] (Table 2), 3.9 nM.

With `C=CC(=O)N1CC(N2CCN(c3ncnc4ccc(-c5cnc(OC)c(NS(=O)(=O)c6ccc(F)cc6F)c5)cc34)CC2)C1` [Example 55, N-(5-(4-(4-(1-acryloylazetidin-3-yl)piperazin-1-yl)quinazolin-6-yl)-2-methoxypyridin-3-yl)-2,4-difluorobenzene-sulfonamide], the IC50 in test [1] was 39.5 nM; in test [2] (Table 2) it was 43.5 nM; in test [3] (Table 2), 1.2 nM.

As to `C=C(F)C(=O)N1CC2(CCN(c3ncnc4ccc(-c5cnc(OC)c(NS(=O)(=O)c6c(F)cccc6F)c5)cc34)CC2)C1` [Example 47, 2,6-difluoro-N-(5-(4-(2-(2-fluoroacryloyl)-2,7-diazaspiro[3.5]nonan-7-yl)quinazolin-6-yl)-2-methoxypyridin-3-yl) benzenesulfonamide], the figures for the IC50 in test [1], in test [2] (Table 2) and in test [3] (Table 2) were 34.3 nM, 25.2 nM and 2.2 nM, respectively.

On to `C=CC(=O)N1C[C@H](C)N(c2ncnc3ccc(-c4cnc(OC)c(NS(=O)(=O)c5ccc(F)cc5F)c4)cc23)C[C@H]1C` [Example 14, N-(5-(4-((2S,5R)-4-acryloyl-2,5-dimethylpiperazin-1-yl)quinazolin-6-yl)-2-methoxypyridin-3-yl)-2,4-difluorobenzenesulfonamide], for which the IC50 in test [1] is 233 nM; in test [2] (Table 1), 62.1 nM; in test [3] (Table 1), 9.5 nM.

As to `COc1ncc(-c2ccc3ncnc(N4CCN(C(=O)C5=CC(=O)CCC5)CC4)c3c2)cc1NS(=O)(=O)c1ccc(F)cc1F` [Example 72, 2,4-difluoro-N-(2-methoxy-5-(4-(4-(3-oxocyclohex-1-ene-1-carbonyl)piperazin-1-yl)quinazolin-6-yl)pyridin-3-yl)benzenesulfonamide], the values for the IC50 in test [1], in test [2] (Table 2) and in test [3] (Table 2) were 14.4 nM, 24.3 nM and 5.9 nM, respectively.

As to `COc1ncc(-c2ccc3ncnc(N4CCN(C(=O)C5=CC(=O)CC5)CC4)c3c2)cc1NS(=O)(=O)c1ccc(F)cc1F` [Example 74, 2,4-difluoro-N-(2-methoxy-5-(4-(4-(3-oxocyclopent-1-ene-1-carbonyl)piperazin-1-yl)quinazolin-6-yl)pyridin-3-yl)benzenesulfonamide], the figures for the IC50 in test [1], in test [2] (Table 2) and in test [3] (Table 2) were 26.5 nM, 23.2 nM and 1.8 nM, respectively.

As to `COc1ncc(-c2ccc3ncnc(N4CCN(C(=O)/C=C/C(F)(F)F)CC4)c3c2)cc1NS(=O)(=O)c1c(F)cccc1F` [Example 44, (E)-2,6-difluoro-N-(2-methoxy-5-(4-(4-(4,4,4-trifluorobut-2-enoyl)piperazin-1-yl)quinazolin-6-yl)pyridin-3-yl) benzenesulfonamide], the IC50 in test [1] is 41.6 nM; in test [2] (Table 2) it was 17.5 nM; in test [3] (Table 2) it was 4.3 nM.

As to `COc1ncc(-c2ccc3ncnc(N4CCC5(CC=CC5=O)CC4)c3c2)cc1NS(=O)(=O)c1c(F)cccc1F` [Example 71, 2,6-difluoro-N-(2-methoxy-5-(4-(1-oxo-8-azaspiro[4,5]dec-2-en-8-yl)quinazolin-6-yl)pyridin-3-yl)benzenesulfonamide], the IC50 worked out at 75 nM in test [1], 31.5 nM in test [2] (Table 2) and 2.1 nM in test [3] (Table 2).

Take `COc1ncc(-c2ccc3ncnc(NC4CCN(C(=O)/C=C/C(C)=O)CC4)c3c2)cc1NS(=O)(=O)c1ccc(F)cc1F` [Example 130, (E)-2,4-difluoro-N-(2-methoxy-5-(4-((1-(4-oxopent-2-enoyl)piperidin-4-yl)amino)quinazolin-6-yl)pyridin-3-yl)benzenesulfonamide]: the IC50 was 442 nM in test [1], 15.2 nM in test [2] (Table 2) and 2.6 nM in test [3] (Table 2).

Regarding `C=CC(=O)N1CCN(c2ncnc3ccc(-c4cnc(OC)c(NS(=O)(=O)c5c(F)cccc5F)c4)cc23)CC1` [Example 21, N-(5-(4-(4-acryloylpiperazin-1-yl)quinazolin-6-yl)-2-methoxypyridin-3-yl)-2,6-difluorobenzenesulfonamide], the IC50 in test [1] is 27 nM; in test [2] (Table 1) it was 58.2 nM; in test [3] (Table 1) it was 5.8 nM.

Regarding `C=CC(=O)N1CCN(c2ncnc3c2CN(c2cnc(OC)c(NS(=O)(=O)c4ccc(F)cc4F)c2)CC3)CC1` [Example 41, N-(5-(4-(4-acryloylpiperazin-1-yl)-7,8-dihydropyrido[4,3-d]pyrimidin-6 (5H)-yl)-2-methoxypyridin-3-yl)-2,4-difluorobenzenesulfonamide], the IC50 in test [1] stood at 4290 nM; in test [2] (Table 1), 10.1 nM; in test [3] (Table 1) it was 7.6 nM.

What is called IC50 is the concentration that gives 50% inhibition.
